Measurements as given in patent US20260224588A1, “BENZODIAZEPINONE-DERIVED INHIBITORS OF EGFR AND HER2” (The Research Foundation for the State University of New York, priority 2023, published 2026).

Assays:
Assay type in all cases: binding
[1] = biological target: CHEK1 (Homo sapiens, UniProt O14757); test: KINOMEscan; conditions: 1 μM of compound 4; read-out: POC
[2] = biological target: T1, TXK (Homo sapiens, UniProt P42681); test: KINOMEscan; conditions: 1 μM of compound 4; read-out: POC
T1 construct: purchased Eurofins DiscoverX

[3] = biological target: T2, EPHB4 (Homo sapiens, UniProt P54760); test: KINOMEscan; conditions: 1 μM of compound 4; read-out: POC
T2 construct: purchased Eurofins DiscoverX (KINOMEscan service)

[4] = biological target: KIT(D816H) (Homo sapiens, UniProt P10721, D816H); test: KINOMEscan; conditions: 1 μM of compound 4; read-out: POC
[5] = biological target: MLK3 (Homo sapiens, UniProt Q16584); test: KINOMEscan; conditions: 1 μM of compound 4; read-out: POC
[6] = biological target: T3, EPHB1 (Homo sapiens, UniProt P54762); test: KINOMEscan; conditions: 1 μM of compound 4; read-out: POC
T3 construct: purchased Eurofins DiscoverX (KINOMEscan service)

[7] = biological target: BMPR1A (Homo sapiens, UniProt P36894); test: KINOMEscan; conditions: 1 μM of compound 4; read-out: POC
[8] = biological target: JNK3 (Homo sapiens, UniProt P53779); test: KINOMEscan; conditions: 1 μM of compound 4; read-out: POC
[9] = biological target: T4, GCN2(Kin.Dom.2 + S808G) (Homo sapiens, UniProt Q9P2K8, S808G); test: KINOMEscan; conditions: 1 μM of compound 4; read-out: POC
T4 construct: GCN2(Kin.Dom.2 + S808G); purchased Eurofins DiscoverX Corporation

[10] = biological target: PKAC-alpha (Homo sapiens, UniProt P17612); test: KINOMEscan; conditions: 1 μM of compound 4; read-out: POC
[11] = biological target: T5, RPS6KA5(Kin.Dom.1-N-terminal) (Homo sapiens, UniProt O75582); test: KINOMEscan; conditions: 1 μM of compound 4; read-out: POC
T5 construct: RPS6KA5(Kin.Dom.1-N-terminal); purchased Eurofins DiscoverX Corporation (KINOMEscan screening service)

[12] = biological target: LIMK1 (Homo sapiens, UniProt P53667); test: KINOMEscan; conditions: 1 μM of compound 4; read-out: POC
[13] = biological target: T6, RET (Homo sapiens, UniProt P07949); test: KINOMEscan; conditions: 1 μM of compound 4; read-out: POC
T6 construct: purchased Eurofins DiscoverX Corporation (KINOMEscan screening service)

[14] = biological target: T7, EPHA2 (Homo sapiens, UniProt P29317); test: KINOMEscan; conditions: 1 μM of compound 4; read-out: POC
T7 construct: purchased Eurofins DiscoverX (KINOMEscan service)

[15] = biological target: NEK10 (Homo sapiens, UniProt Q6ZWH5); test: KINOMEscan; conditions: 1 μM of compound 4; read-out: POC
[16] = system: 468 kinases; test: KINOMEscan selectivity screening; conditions: 1 μM
[17] = biological target: MEK5 (Homo sapiens, UniProt Q13163); test: KINOMEscan; conditions: 1 μM of compound 4; read-out: POC
[18] = biological target: T8, GRK4 (Homo sapiens, UniProt P32298); test: KINOMEscan; conditions: 1 μM of compound 4; read-out: POC
T8 construct: purchased Eurofins DiscoverX Corporation

[19] = biological target: T9, EGFR(E746-A750del) (Homo sapiens, UniProt P00533, DEL746-750); test: KINOMEscan; conditions: 1 μM of compound 4; read-out: POC
T9 construct: purchased Eurofins DiscoverX (KINOMEscan service)

[20] = biological target: T10, ABL1(F317I)-phosphorylated (Homo sapiens, UniProt P00519, F317I); test: KINOMEscan; conditions: 1 μM of compound 4; read-out: POC
T10 construct: purchased Eurofins DiscoverX Corporation

[21] = biological target: MYLK2 (Homo sapiens, UniProt Q9H1R3); test: KINOMEscan; conditions: 1 μM of compound 4; read-out: POC
[22] = biological target: EGFR(L858R) (Homo sapiens, UniProt P00533, L858R); test: KINOMEscan; set-up: purchased Eurofins DiscoverX (KINOMEscan service); conditions: 1 μM of compound 4; read-out: POC
[23] = biological target: INSR (Homo sapiens, UniProt P06213); test: KINOMEscan; conditions: 1 μM of compound 4; read-out: POC
[24] = biological target: T11, EPHA5 (Homo sapiens, UniProt P54756); test: KINOMEscan; conditions: 1 μM of compound 4; read-out: POC
T11 construct: purchased Eurofins DiscoverX (KINOMEscan service)

[25] = biological target: MST1R (Homo sapiens, UniProt Q04912); test: KINOMEscan; conditions: 1 μM of compound 4; read-out: POC
[26] = biological target: T12, S6K1 (Homo sapiens, UniProt P23443); test: KINOMEscan; conditions: 1 μM of compound 4; read-out: POC
T12 construct: purchased Eurofins DiscoverX (KINOMEscan service)

[27] = biological target: ACVR2A (Homo sapiens, UniProt P27037); test: KINOMEscan; conditions: 1 μM of compound 4; read-out: POC
[28] = biological target: ACVRL1 (Homo sapiens, UniProt P37023); test: KINOMEscan; conditions: 1 μM of compound 4; read-out: POC
[29] = biological target: T13, RSK4(Kin.Dom.2-C-terminal) (Homo sapiens, UniProt Q9UK32); test: KINOMEscan; conditions: 1 μM of compound 4; read-out: POC
T13 construct: RSK4(Kin.Dom.2-C-terminal); purchased Eurofins DiscoverX (KINOMEscan service)

[30] = biological target: T14, RSK2(Kin.Dom.2-C-terminal) (Homo sapiens, UniProt P51812); test: KINOMEscan; conditions: 1 μM of compound 4; read-out: POC
T14 construct: RSK2(Kin.Dom.2-C-terminal); purchased Eurofins DiscoverX Corporation (KINOMEscan screening service)

[31] = biological target: T15, HIPK1 (Homo sapiens, UniProt Q86Z02); test: KINOMEscan; conditions: 1 μM of compound 4; read-out: POC
T15 construct: purchased Eurofins DiscoverX Corporation

[32] = biological target: T16, FLT4 (Homo sapiens, UniProt P35916); test: KINOMEscan; conditions: 1 μM of compound 4; read-out: POC
T16 construct: purchased Eurofins DiscoverX Corporation

[33] = biological target: T17, GSK3A (Homo sapiens, UniProt P49840); test: KINOMEscan; conditions: 1 μM of compound 4; read-out: POC
T17 construct: purchased Eurofins DiscoverX Corporation

[34] = biological target: PIK3CA(H1047L) (Homo sapiens, UniProt P42336, H1047L); test: KINOMEscan; conditions: 1 μM of compound 4; read-out: POC
[35] = biological target: T18, TYK2(JH1domain-catalytic) (Homo sapiens, UniProt P29597); test: KINOMEscan; conditions: 1 μM of compound 4; read-out: POC
T18 construct: TYK2(JH1domain-catalytic); purchased Eurofins DiscoverX

[36] = biological target: LOK (Homo sapiens, UniProt O94804); test: KINOMEscan; conditions: 1 μM of compound 4; read-out: POC

LIMK1, sequence (P53667 whole entry): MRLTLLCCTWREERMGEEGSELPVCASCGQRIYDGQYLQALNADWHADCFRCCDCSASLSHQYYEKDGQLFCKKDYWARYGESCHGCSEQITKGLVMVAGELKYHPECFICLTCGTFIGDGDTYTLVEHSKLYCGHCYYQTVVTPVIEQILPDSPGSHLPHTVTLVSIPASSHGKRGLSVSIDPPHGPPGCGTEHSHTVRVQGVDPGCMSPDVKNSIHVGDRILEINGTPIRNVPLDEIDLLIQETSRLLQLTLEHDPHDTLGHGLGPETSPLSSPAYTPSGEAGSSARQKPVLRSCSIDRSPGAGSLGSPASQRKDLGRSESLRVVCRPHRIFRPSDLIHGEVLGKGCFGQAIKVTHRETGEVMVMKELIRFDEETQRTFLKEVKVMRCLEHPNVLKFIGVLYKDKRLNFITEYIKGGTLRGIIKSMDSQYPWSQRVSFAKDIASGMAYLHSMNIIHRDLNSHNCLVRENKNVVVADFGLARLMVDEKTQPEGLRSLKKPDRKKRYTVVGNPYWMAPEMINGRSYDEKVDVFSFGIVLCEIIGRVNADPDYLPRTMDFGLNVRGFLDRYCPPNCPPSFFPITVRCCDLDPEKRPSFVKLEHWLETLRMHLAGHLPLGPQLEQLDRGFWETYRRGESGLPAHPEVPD
ACVR2A, sequence (P27037 20-513): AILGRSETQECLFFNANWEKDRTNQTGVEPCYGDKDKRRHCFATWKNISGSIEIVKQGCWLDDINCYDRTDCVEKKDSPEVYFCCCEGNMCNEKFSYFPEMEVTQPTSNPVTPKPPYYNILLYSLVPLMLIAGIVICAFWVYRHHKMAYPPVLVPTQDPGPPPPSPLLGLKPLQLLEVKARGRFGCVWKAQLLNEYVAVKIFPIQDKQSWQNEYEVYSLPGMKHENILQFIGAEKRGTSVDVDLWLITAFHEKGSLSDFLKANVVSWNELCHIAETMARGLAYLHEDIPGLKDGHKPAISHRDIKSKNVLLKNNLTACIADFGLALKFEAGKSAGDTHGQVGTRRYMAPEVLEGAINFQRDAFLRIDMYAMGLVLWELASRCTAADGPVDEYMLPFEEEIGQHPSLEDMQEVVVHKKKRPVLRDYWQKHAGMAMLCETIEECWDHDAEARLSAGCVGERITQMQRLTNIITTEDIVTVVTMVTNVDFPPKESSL
JNK3, sequence (P53779 whole entry): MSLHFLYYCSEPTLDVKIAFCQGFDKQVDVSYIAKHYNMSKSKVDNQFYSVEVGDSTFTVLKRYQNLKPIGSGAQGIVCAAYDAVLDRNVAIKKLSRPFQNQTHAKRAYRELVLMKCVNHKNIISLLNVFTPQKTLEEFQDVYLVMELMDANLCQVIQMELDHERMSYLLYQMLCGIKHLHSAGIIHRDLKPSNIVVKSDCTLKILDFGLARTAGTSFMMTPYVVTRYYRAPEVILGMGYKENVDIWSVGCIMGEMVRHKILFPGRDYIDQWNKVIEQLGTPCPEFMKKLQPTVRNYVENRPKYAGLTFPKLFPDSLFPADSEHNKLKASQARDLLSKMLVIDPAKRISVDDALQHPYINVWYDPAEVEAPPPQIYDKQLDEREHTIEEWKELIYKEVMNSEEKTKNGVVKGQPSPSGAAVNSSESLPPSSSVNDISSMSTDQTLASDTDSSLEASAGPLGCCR
MST1R, sequence (Q04912 25-1400): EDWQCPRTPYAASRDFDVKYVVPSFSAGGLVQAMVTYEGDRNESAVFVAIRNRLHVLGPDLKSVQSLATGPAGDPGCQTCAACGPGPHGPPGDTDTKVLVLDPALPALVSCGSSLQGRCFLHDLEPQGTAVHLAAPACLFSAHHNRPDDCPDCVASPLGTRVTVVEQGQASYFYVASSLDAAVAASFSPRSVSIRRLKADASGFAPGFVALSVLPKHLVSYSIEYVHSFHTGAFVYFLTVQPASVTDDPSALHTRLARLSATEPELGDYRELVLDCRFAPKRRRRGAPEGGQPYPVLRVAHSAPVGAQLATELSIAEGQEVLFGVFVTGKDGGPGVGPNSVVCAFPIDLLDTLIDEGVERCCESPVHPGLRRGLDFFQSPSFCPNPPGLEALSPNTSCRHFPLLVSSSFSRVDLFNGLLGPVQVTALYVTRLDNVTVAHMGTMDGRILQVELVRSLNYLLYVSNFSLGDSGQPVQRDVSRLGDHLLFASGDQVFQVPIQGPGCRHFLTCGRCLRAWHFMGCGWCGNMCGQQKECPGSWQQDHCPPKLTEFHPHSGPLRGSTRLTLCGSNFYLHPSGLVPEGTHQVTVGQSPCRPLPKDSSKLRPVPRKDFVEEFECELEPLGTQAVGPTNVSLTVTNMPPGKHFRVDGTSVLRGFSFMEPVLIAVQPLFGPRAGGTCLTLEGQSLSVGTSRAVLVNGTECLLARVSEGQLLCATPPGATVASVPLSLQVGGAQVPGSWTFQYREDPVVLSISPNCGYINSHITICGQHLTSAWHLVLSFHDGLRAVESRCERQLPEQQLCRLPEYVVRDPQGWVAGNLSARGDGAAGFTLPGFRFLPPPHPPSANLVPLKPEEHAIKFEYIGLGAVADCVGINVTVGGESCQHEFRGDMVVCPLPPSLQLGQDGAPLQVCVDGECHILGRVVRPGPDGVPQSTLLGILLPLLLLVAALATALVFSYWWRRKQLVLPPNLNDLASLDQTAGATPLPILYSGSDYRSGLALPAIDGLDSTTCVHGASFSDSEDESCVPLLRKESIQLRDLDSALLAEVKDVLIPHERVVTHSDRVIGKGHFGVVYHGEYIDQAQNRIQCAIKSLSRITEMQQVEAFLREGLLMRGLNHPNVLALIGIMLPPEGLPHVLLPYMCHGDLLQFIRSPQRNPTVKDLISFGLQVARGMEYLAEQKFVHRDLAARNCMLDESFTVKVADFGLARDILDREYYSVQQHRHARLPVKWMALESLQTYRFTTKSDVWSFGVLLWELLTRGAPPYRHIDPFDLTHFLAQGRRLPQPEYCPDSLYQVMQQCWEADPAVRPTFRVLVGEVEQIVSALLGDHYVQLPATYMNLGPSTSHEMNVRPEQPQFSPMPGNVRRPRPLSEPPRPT
T6 sequence (P07949 29-1114): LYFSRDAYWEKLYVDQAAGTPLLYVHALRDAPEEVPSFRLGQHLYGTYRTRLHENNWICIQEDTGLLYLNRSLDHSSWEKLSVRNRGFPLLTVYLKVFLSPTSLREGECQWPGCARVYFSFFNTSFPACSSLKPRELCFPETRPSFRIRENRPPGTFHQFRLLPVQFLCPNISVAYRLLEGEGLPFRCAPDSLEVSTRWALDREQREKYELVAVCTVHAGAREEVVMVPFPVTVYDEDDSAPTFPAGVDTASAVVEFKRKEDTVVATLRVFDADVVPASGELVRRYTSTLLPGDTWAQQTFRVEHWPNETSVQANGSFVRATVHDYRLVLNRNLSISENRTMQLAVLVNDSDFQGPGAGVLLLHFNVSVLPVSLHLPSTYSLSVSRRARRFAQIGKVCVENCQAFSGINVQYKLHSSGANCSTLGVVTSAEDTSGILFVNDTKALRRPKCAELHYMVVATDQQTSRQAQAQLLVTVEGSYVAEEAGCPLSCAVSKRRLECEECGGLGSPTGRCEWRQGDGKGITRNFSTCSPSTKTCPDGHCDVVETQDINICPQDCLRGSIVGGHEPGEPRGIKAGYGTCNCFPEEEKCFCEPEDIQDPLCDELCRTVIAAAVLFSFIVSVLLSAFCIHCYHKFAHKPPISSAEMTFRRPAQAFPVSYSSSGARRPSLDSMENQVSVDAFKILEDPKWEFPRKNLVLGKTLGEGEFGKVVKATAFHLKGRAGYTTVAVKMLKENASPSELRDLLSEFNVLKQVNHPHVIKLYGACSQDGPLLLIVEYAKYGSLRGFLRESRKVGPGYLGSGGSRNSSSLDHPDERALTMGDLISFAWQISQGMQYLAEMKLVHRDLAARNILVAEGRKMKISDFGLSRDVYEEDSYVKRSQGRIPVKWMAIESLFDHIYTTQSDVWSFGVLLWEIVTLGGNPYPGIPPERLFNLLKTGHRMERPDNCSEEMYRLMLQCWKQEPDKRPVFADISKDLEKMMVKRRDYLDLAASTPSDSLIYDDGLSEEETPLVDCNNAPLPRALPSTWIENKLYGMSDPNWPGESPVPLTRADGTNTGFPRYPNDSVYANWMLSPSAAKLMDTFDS
T11 sequence (P54756 25-1037): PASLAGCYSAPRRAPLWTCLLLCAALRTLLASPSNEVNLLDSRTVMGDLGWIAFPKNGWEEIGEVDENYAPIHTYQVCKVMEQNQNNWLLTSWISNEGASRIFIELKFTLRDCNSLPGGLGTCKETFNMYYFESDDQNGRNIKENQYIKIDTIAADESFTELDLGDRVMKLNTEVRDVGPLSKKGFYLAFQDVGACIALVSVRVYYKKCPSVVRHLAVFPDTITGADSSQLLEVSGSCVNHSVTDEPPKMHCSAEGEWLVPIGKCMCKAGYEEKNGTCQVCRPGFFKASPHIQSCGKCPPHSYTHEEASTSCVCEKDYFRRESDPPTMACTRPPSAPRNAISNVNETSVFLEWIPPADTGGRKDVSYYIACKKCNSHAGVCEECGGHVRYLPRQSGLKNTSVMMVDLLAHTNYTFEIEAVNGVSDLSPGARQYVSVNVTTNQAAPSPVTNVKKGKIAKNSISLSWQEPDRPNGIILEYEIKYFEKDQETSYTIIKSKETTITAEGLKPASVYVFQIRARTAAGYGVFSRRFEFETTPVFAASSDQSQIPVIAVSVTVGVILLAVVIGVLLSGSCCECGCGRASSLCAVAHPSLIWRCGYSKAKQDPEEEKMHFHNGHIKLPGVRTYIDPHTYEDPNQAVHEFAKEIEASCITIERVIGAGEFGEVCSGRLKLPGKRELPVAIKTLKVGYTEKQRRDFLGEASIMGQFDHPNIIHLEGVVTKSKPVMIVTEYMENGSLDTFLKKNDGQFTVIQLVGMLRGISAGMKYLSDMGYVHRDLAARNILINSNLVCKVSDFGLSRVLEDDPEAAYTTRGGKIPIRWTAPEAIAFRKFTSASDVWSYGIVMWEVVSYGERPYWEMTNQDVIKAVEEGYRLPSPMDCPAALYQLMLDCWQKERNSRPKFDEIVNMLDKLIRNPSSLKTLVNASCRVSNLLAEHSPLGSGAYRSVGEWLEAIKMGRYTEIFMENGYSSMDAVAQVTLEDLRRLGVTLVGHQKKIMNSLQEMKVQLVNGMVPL

C=CC(=O)Nc1ccc(OC)c(Nc2cc(-c3[nH]c(CC)nc3-c3cccc(NC(=O)c4cccc5c4NC(=O)c4ccccc4N5)c3)ccn2)c1 [Compound 4, N-(3-(5-(2-((5-Acrylamido-2-methoxyphenyl)amino)pyridin-4-yl)-2-ethyl-1H-imidazol-4-yl)phenyl)-11-oxo-10,11-dihydro-5H-dibenzo[b,e][1,4]diazepine-9-carboxamide]
remaining binding at 1 µM [1]: 100%
remaining binding at 1 µM [2]: 42%
remaining binding at 1 µM [3]: 100%
remaining binding at 1 µM [4]: 39%
remaining binding at 1 µM [5]: 97%
remaining binding at 1 µM [6]: 92%
remaining binding at 1 µM [7]: 85%
remaining binding at 1 µM [8]: 53%
remaining binding at 1 µM [9]: 100%
remaining binding at 1 µM [10]: 100%
remaining binding at 1 µM [11]: 83%
remaining binding at 1 µM [12]: 79%
remaining binding at 1 µM [13]: 99%
remaining binding at 1 µM [14]: 100%
remaining binding at 1 µM [15]: 86%
S (35) kinome selectivity [16]: 0.084
remaining binding at 1 µM [17]: 41%
remaining binding at 1 µM [18]: 100%
remaining binding at 1 µM [19]: 13%
remaining binding at 1 µM [20]: 84%
remaining binding at 1 µM [21]: 84%
remaining binding at 1 µM [22]: 5%
remaining binding at 1 µM [23]: 97%
remaining binding at 1 µM [24]: 100%
remaining binding at 1 µM [25]: 85%
remaining binding at 1 µM [26]: 100%
remaining binding at 1 µM [27]: 77%
remaining binding at 1 µM [28]: 75%
remaining binding at 1 µM [29]: 80%
remaining binding at 1 µM [30]: 100%
remaining binding at 1 µM [31]: 51%
remaining binding at 1 µM [32]: 100%
remaining binding at 1 µM [33]: 65%
remaining binding at 1 µM [34]: 100%
remaining binding at 1 µM [35]: 91%
remaining binding at 1 µM [36]: 49%
